Measured values as given in the OligoGym collection.
HELM strings list units from the 5' end as sugar, base in round brackets, then linkage (d deoxyribose, r ribose, m 2'-O-methyl, p phosphodiester). Strings are as the collection lists them, not checked against the first reports. ss, as = sense and antisense strand; [lna] = locked nucleic acid (LNA); [una] = unlocked nucleic acid; [s4r] = 4'-thioribose; [fl2r] = 2'-fluoro

Settings: siRNA
Note: test system not given here.

For “RNA1{m(A)p.r(A)p.m(A)p.r(C)p.m(C)p.r(U)p.m(C)p.r(A)p.m(G)p.r(C)p.m(C)p.r(C)p.m(U)p.r(A)p.m(A)p.r(C)p.m(G)p.r(G)p.m(U)p.r(T)p.r(T)}|RNA2{r(A)p.m(C)p.m(C)p.r(G)p.r(U)p.r(U)p.r(A)p.r(G)p.r(G)p.r(G)p.m(C)p.r(U)p.r(G)p.r(A)p.r(G)p.r(G)p.r(U)p.r(U)p.r(U)p.r(T)p.r(T)}$$$RNA1{StrandType:ss}|RNA2{StrandType:as}$”, the target mRNA knockdown was 28%.

In the case of “RNA1{r(G)p.r(U)p.r(U)p.r(C)p.r(A)p.r(C)p.r(G)p.r(U)p.r(C)p.r(C)p.r(U)p.r(A)p.r(C)p.r(C)p.r(C)p.r(C)p.r(U)p.r(U)p.r(U)p.r(T)p.r(T)}|RNA2{r(A)p.r(A)p.r(A)p.r(G)p.r(G)p.r(G)p.r(G)p.[fl2r](U)p.r(A)p.r(G)p.r(G)p.r(A)p.r(C)p.r(G)p.r(U)p.r(G)p.r(A)p.r(A)p.r(C)p.r(T)p.r(T)}$$$RNA1{StrandType:ss}|RNA2{StrandType:as}$”, the target mRNA knockdown is reported as 69%.

Substance “RNA1{[fl2r](G)p.m(A)p.[fl2r](C)p.m(G)p.[fl2r](U)p.m(A)p.[fl2r](A)p.m(A)p.[fl2r](C)p.m(G)p.[fl2r](G)p.m(C)p.[fl2r](C)p.m(A)p.[fl2r](C)p.m(A)p.[fl2r](A)p.m(G)p.[fl2r](U)p.m(U)p.[fl2r](C)}|RNA2{r(A)p.r(C)p.r(U)p.r(U)p.r(G)p.r(U)p.r(G)p.r(G)p.r(C)p.r(C)p.r(G)p.r(U)p.r(U)p.r(U)p.r(A)p.r(C)p.r(G)p.r(U)p.r(C)p.r(G)p.r(C)}$$$RNA1{StrandType:ss}|RNA2{StrandType:as}$” has a target mRNA knockdown of 87.3%.

In the case of “RNA1{m(U)p.r(A)p.r(C)p.r(C)p.r(G)p.r(A)p.r(G)p.r(A)p.r(A)p.m(U)p.r(G)p.r(A)p.r(G)p.r(C)p.r(C)p.m(U)p.r(G)p.r(A)p.r(U)p.r(T)p.r(T)}|RNA2{r(A)p.r(U)p.m(C)p.r(A)p.r(G)p.r(G)p.r(C)p.r(U)p.m(C)p.r(A)p.r(U)p.r(U)p.r(C)p.r(U)p.r(C)p.r(G)p.r(G)p.m(U)p.r(A)p.r(T)p.r(T)}$$$RNA1{StrandType:ss}|RNA2{StrandType:as}$”, the target mRNA knockdown is reported as 54%.

“RNA1{r(A)p.r(G)p.r(A)p.r(G)p.r(G)p.r(A)p.r(C)p.r(C)p.r(U)p.m(A)p.r(G)p.r(A)p.r(A)p.r(G)p.r(G)p.r(C)p.r(G)p.r(G)p.r(C)p.r(T)p.r(T)}|RNA2{r(G)p.r(C)p.r(C)p.r(G)p.r(C)p.r(C)p.r(U)p.r(U)p.r(C)p.r(U)p.r(A)p.r(G)p.r(G)p.r(U)p.r(C)p.r(C)p.r(U)p.r(C)p.r(U)p.r(T)p.r(T)}$$$RNA1{StrandType:ss}|RNA2{StrandType:as}$” gave a target mRNA knockdown of 92%.

In the case of “RNA1{r(G)p.r(G)p.r(C)p.r(C)p.r(U)p.r(U)p.r(U)p.r(C)p.r(U)p.r(C)p.r(U)p.r(C)p.m(U)p.r(A)p.r(G)p.r(A)p.m(U)p.r(A)p.r(U)p.r(T)p.r(T)}|RNA2{r(A)p.m(U)p.r(A)p.r(U)p.r(C)p.m(U)p.r(A)p.r(G)p.r(A)p.r(G)p.r(A)p.r(G)p.r(A)p.r(A)p.r(A)p.r(G)p.r(G)p.r(C)p.r(C)p.r(T)p.r(T)}$$$RNA1{StrandType:ss}|RNA2{StrandType:as}$”, the target mRNA knockdown is reported as 89%.

Work on “RNA1{[s4r](A)p.[s4r](A)p.[s4r](A)p.[s4r](C)p.r(A)p.r(U)p.r(G)p.r(C)p.r(A)p.r(G)p.r(A)p.r(A)p.r(A)p.r(A)p.r(U)p.[s4r](G)p.[s4r](C)p.[s4r](C)p.[s4r](U)p.r(T)p.r(T)}|RNA2{r(C)p.r(A)p.r(G)p.r(C)p.r(A)p.r(U)p.r(U)p.r(U)p.r(U)p.r(C)p.r(U)p.r(G)p.r(C)p.r(A)p.r(U)p.[s4r](G)p.[s4r](U)p.[s4r](U)p.[s4r](U)p.r(T)p.r(T)}$$$RNA1{StrandType:ss}|RNA2{StrandType:as}$” yielded a target mRNA knockdown of 87.3%.

Work on “RNA1{r(A)p.r(A)p.r(C)p.r(U)p.r(C)p.m(U)p.r(A)p.r(C)p.m(U)p.r(G)p.m(U)p.r(G)p.r(G)p.r(A)p.r(G)p.r(U)p.r(C)p.r(G)p.r(G)p.r(T)p.r(T)}|RNA2{r(C)p.r(C)p.r(G)p.r(A)p.r(C)p.r(U)p.r(C)p.m(C)p.r(A)p.r(C)p.r(A)p.r(G)p.m(U)p.r(A)p.r(G)p.r(A)p.r(G)p.r(U)p.r(U)p.r(T)p.r(T)}$$$RNA1{StrandType:ss}|RNA2{StrandType:as}$” yielded a target mRNA knockdown of 68%.

In the case of “RNA1{r(A)p.r(A)p.m(U)p.r(A)p.r(A)p.r(G)p.m(C)p.r(A)p.r(G)p.r(C)p.r(U)p.r(C)p.r(G)p.m(C)p.r(G)p.r(C)p.r(U)p.r(C)p.r(C)p.r(T)p.r(T)}|RNA2{r(G)p.r(G)p.r(A)p.r(G)p.r(C)p.r(G)p.r(C)p.r(G)p.r(A)p.r(G)p.r(C)p.m(U)p.r(G)p.r(C)p.r(U)p.m(U)p.r(A)p.r(U)p.r(U)p.r(T)p.r(T)}$$$RNA1{StrandType:ss}|RNA2{StrandType:as}$”, the target mRNA knockdown is reported as 51%.

“RNA1{r(G)p.r(U)p.r(A)p.r(U)p.r(G)p.r(A)p.r(C)p.r(C)p.r(G)p.r(A)p.r(C)p.r(U)p.r(A)p.r(C)p.r(G)p.r(C)p.r(G)p.r(U)p.r(A)p.r(T)p.r(T)}|RNA2{r(U)p.r(U)p.r(C)p.r(A)p.r(G)p.r(U)p.r(G)p.r(U)p.[una](G)p.r(A)p.r(U)p.r(G)p.r(A)p.r(C)p.r(A)p.r(C)p.r(U)p.r(U)p.r(G)p.r(T)p.r(T)}$$$RNA1{StrandType:ss}|RNA2{StrandType:as}$” gave a target mRNA knockdown of 89%.

Work on “RNA1{r(C)p.r(U)p.r(U)p.r(A)p.r(C)p.r(G)p.r(C)p.r(U)p.r(G)p.r(A)p.r(G)p.r(U)p.r(A)p.r(C)p.r(U)p.r(U)p.r(C)p.r(G)p.r(A)p.r(T)p.r(T)}|RNA2{r(U)p.r(C)p.[lna](G)p.r(A)p.r(A)p.r(G)p.r(U)p.r(A)p.r(C)p.r(U)p.r(C)p.r(A)p.r(G)p.r(C)p.r(G)p.r(U)p.r(A)p.r(A)p.r(G)p.r(T)p.r(T)}$$$RNA1{StrandType:ss}|RNA2{StrandType:as}$” yielded a target mRNA knockdown of 82%.

“RNA1{r(C)p.r(U)p.r(U)p.r(A)p.r(C)p.r(G)p.r(C)p.r(U)p.r(G)p.r(A)p.r(G)p.r(U)p.r(A)p.r(C)p.r(U)p.r(U)p.r(C)p.r(G)p.r(A)p.r(T)p.r(T)}|RNA2{r(U)p.r(C)p.r(G)p.r(A)p.r(A)p.r(G)p.r(U)p.r(A)p.[lna](C)p.r(U)p.r(C)p.r(A)p.r(G)p.r(C)p.r(G)p.r(U)p.r(A)p.r(A)p.r(G)p.r(T)p.r(T)}$$$RNA1{StrandType:ss}|RNA2{StrandType:as}$” gave a target mRNA knockdown of 85%.

In the case of “RNA1{r(A)p.r(G)p.r(A)p.r(U)p.r(G)p.r(U)p.r(U)p.r(C)p.r(U)p.r(C)p.r(G)p.r(U)p.r(A)p.r(A)p.r(G)p.r(G)p.r(A)p.r(C)p.r(G)p.r(T)p.r(T)}|RNA2{r(C)p.r(G)p.r(U)p.r(C)p.r(C)p.r(U)p.m(U)p.r(A)p.r(C)p.r(G)p.r(A)p.r(G)p.r(A)p.r(A)p.r(C)p.r(A)p.r(U)p.r(C)p.r(U)p.r(T)p.r(T)}$$$RNA1{StrandType:ss}|RNA2{StrandType:as}$”, the target mRNA knockdown is reported as 69%.

For “RNA1{r(G)p.r(U)p.r(A)p.r(U)p.r(G)p.r(A)p.r(C)p.r(C)p.r(G)p.r(A)p.r(C)p.r(U)p.r(A)p.r(C)p.r(G)p.r(C)p.r(G)p.r(U)p.r(A)p.r(T)p.r(T)}|RNA2{r(U)p.r(U)p.r(C)p.r(A)p.r(G)p.r(U)p.r(G)p.r(U)p.r(G)p.r(A)p.r(U)p.r(G)p.r(A)p.r(C)p.r(A)p.r(C)p.r(U)p.r(U)p.[una](G)p.r(T)p.r(T)}$$$RNA1{StrandType:ss}|RNA2{StrandType:as}$”, the target mRNA knockdown was 82%.
